According to US20230117324A1, “OXAZINE MONOACYLGLYCEROL LIPASE (MAGL) INHIBITORS” (Hoffmann-La Roche Inc., priority 2018, published 2023):

molecular target: T1, MAGL (Homo sapiens, UniProt Q99685); experiment: MAGL inhibition, 2-AG assay (hydrolysis of 2-arachidonoylglycerol, arachidonic acid by mass spectrometry); assay type: biochemical; details: 2-AG assay (footnote [b])
T1 sequence (Q99685 1-303): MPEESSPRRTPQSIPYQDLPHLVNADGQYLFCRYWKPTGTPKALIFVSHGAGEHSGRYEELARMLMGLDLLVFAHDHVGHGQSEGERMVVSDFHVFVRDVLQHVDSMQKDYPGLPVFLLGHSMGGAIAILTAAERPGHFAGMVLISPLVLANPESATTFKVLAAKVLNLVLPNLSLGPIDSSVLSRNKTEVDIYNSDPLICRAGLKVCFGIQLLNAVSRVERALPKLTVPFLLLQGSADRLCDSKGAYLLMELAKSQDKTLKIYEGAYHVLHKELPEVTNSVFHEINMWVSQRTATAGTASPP
Summary of the method: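 Human MAGL […] was preincubated 15 min at RT with compound ([…], 3-fold steps) in 50 mM Tris, 1 mM EDTA, 0.01% Tween. 2-AG (8 μM) was then added for 30 min at RT. Arachidonic acid was quantified by RapidFire SPE–triple quadrupole MS in negative ESI as its ratio to a d8-arachidonic acid standard.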

For `O=C1CO[C@H]2CCN(C(=O)N3CC(c4ccc(N5CC(C(F)(F)F)C5)cc4)C3)C[C@H]2N1` [Example 129, (4aR,8aS)-6-(3-(4-(3-(Trifluoromethyl)azetidin-1-yl)phenyl)azetidine-1-carbonyl)hexahydro-2H-pyrido[4,3-b][1,4]oxazin-3(4H)-one], which IC50 is on record?
Its IC50 is 2 nM.

With `NC(=O)c1ccccc1-c1ccc(C2CN(C(=O)N3CC[C@@H]4OCC(=O)N[C@@H]4C3)C2)cc1` [Example 130, 2-[4-[1-[(4aR,8aS)-3-Oxo-4,4a,5,7,8,8a-hexahydropyrido[4,3-b][1,4]oxazine-6-carbonyl]azetidin-3-yl]phenyl]benzamide] as the compound, how does the IC50 read?
The IC50 was 4 nM.

For `O=C1CO[C@H]2CCN(C(=O)N3CC(c4ccc(-c5ccccc5)c(Cl)c4)C3)C[C@H]2N1` [Example 131, (4aR,8aS)-6-(3-(2-Chloro-[1,1′-biphenyl]-4-yl)azetidine-1-carbonyl)hexahydro-2H-pyrido[4,3-b][1,4]oxazin-3(4H)-one], which IC50 is on record?
Its IC50 is 0.4 nM.

For `O=C1CO[C@H]2CCN(C(=O)N3CC(c4ccc(Br)c(Cl)c4)C3)C[C@H]2N1` [Example 132, (4aR,8aS)-6-(3-(4-Bromo-3-chlorophenyl)azetidine-1-carbonyl)hexahydro-2H-pyrido[4,3-b][1,4]oxazin-3(4H)-one], which IC50 is on record?
The IC50 was 10 nM.

How did the IC50 turn out when `O=C1CO[C@H]2CCN(C(=O)N3CC(c4ccc(-c5ccc(Cl)cc5F)cc4)C3)C[C@H]2N1` [Example 133, (4aR,8aS)-6-[3-[4-(4-Chloro-2-fluoro-phenyl)phenyl]azetidine-1-carbonyl]-4,4a,5,7,8,8a-hexahydropyrido[4,3-b][1,4]oxazin-3-one] was run?
Its IC50 is 0.2 nM.

For `O=C1CO[C@H]2CCN(C(=O)N3CC(c4ccc(-c5ccc(F)cc5Cl)cc4)C3)C[C@H]2N1` [Example 134, (4aR,8aS)-6-[3-[4-(2-Chloro-4-fluoro-phenyl)phenyl]azetidine-1-carbonyl]-4,4a,5,7,8,8a-hexahydropyrido[4,3-b][1,4]oxazin-3-one], which IC50 is on record?
Its IC50 is 0.1 nM.

For `Cc1ccccc1-c1ccc(C2CN(C(=O)N3CC[C@@H]4OCC(=O)N[C@@H]4C3)C2)cc1` [Example 137, (4aR,8aS)-6-(3-(2′-Methyl-[1,1′-biphenyl]-4-yl)azetidine-1-carbonyl)hexahydro-2H-pyrido[4,3-b][1,4]oxazin-3(4H)-one], which IC50 is on record?
Its IC50 is 0.1 nM.

Which IC50 does the source give for `CC(OC1CN(c2ccc(C3CN(C(=O)N4CC[C@@H]5OCC(=O)N[C@@H]5C4)C3)cc2)C1)C(F)(F)F` (stereo partly drawn) [Example 138, (4aR,8aS)-6-(3-(4-(3-((1,1,1-Trifluoropropan-2-yl)oxy)azetidin-1-yl)phenyl)azetidine-1-carbonyl)hexahydro-2H-pyrido[4,3-b][1,4]oxazin-3(4H)-one] here?
Its IC50 is 1 nM.

Which IC50 does the source give for `O=C1CO[C@H]2CCN(C(=O)N3CC(c4cccc(Br)c4)C3)C[C@H]2N1` [Example 139, (4aR,8aS)-6-(3-(3-Bromophenyl)azetidine-1-carbonyl)hexahydro-2H-pyrido[4,3-b][1,4]oxazin-3(4H)-one] here?
The IC50 was 27 nM.

With `CC(C)(C)c1ccc(C2CN(C(=O)N3CC[C@@H]4OCC(=O)N[C@@H]4C3)C2)cc1` [Example 140, (4aR,8aS)-6-(3-(4-(tert-Butyl)phenyl)azetidine-1-carbonyl)hexahydro-2H-pyrido[4,3-b][1,4]oxazin-3(4H)-one] as the compound, how does the IC50 read?
Its IC50 is 0.6 nM.

Which IC50 does the source give for `O=C1CO[C@H]2CCN(C(=O)N3CC(c4ccc(-c5ccccc5)cc4)C3)C[C@H]2N1` [Example 141, (4aR,8aS)-6-[3-(4-Phenylphenyl)azetidine-1-carbonyl]-4,4a,5,7,8,8a-hexahydropyrido[4,3-b][1,4]oxazin-3-one] here?
Its IC50 is 2 nM.

For `O=C1CO[C@H]2CCN(C(=O)N3CC(c4ccc(-c5ccccc5C(F)F)cc4)C3)C[C@H]2N1` [Example 142, (4aR,8aS)-6-[3-[4-[2-(Difluoromethyl)phenyl]phenyl]azetidine-1-carbonyl]-4,4a,5,7,8,8a-hexahydropyrido[4,3-b][1,4]oxazin-3-one], which IC50 is on record?
Its IC50 is 0.1 nM.

How did the IC50 turn out when `Cc1cccc(-c2ccc(C3CN(C(=O)N4CC[C@@H]5OCC(=O)N[C@@H]5C4)C3)cc2)c1` [Example 143, (4aR,8aS)-6-(3-(3′-Methyl-[1,1′-biphenyl]-4-yl)azetidine-1-carbonyl)hexahydro-2H-pyrido[4,3-b][1,4]oxazin-3(4H)-one] was run?
Its IC50 is 1 nM.

`Cc1ccc(-c2ccc(C3CN(C(=O)N4CC[C@@H]5OCC(=O)N[C@@H]5C4)C3)cc2)cc1` [Example 144, (4aR,8aS)-6-(3-(4′-Methyl-[1,1′-biphenyl]-4-yl)azetidine-1-carbonyl)hexahydro-2H-pyrido[4,3-b][1,4]oxazin-3(4H)-one] was tested. Which IC50 did it give?
Its IC50 is 1 nM.

`O=C1CO[C@H]2CCN(C(=O)N3CC(c4ccc(Cl)nc4)C3)C[C@H]2N1` [Example 145, (4aR,8aS)-6-(3-(6-Chloropyridin-3-yl)azetidine-1-carbonyl)hexahydro-2H-pyrido[4,3-b][1,4]oxazin-3(4H)-one] was tested. Which IC50 did it give?
Its IC50 is 4300 nM.

For `O=C1CO[C@H]2CCN(C(=O)N3CC(c4ccc(C(F)(F)F)cc4)C3)C[C@H]2N1` [Example 146, (4aR,8aS)-6-(3-(4-(Trifluoromethyl)phenyl)azetidine-1-carbonyl)hexahydro-2H-pyrido[4,3-b][1,4]oxazin-3(4H)-one], which IC50 is on record?
Its IC50 is 34 nM.

`CC(C)(OC1CN(c2ccc(C3CN(C(=O)N4CC[C@@H]5OCC(=O)N[C@@H]5C4)C3)cc2)C1)C(F)(F)F` [Example 147, (4aR,8aS)-6-(3-(4-(3-((1,1,1-Trifluoro-2-methylpropan-2-yl)oxy)azetidin-1-yl)phenyl)azetidine-1-carbonyl)hexahydro-2H-pyrido[4,3-b][1,4]oxazin-3(4H)-one] was tested. Which IC50 did it give?
Its IC50 is 1 nM.

With `CC(F)(F)c1ccc(C2CN(C(=O)N3CC[C@@H]4OCC(=O)N[C@@H]4C3)C2)cc1` [Example 148, (4aR,8aS)-6-(3-(4-(1,1-Difluoroethyl)phenyl)azetidine-1-carbonyl)hexahydro-2H-pyrido[4,3-b][1,4]oxazin-3(4H)-one] as the compound, how does the IC50 read?
Its IC50 is 14 nM.

With `CC1CN(c2ccc(C3CN(C(=O)N4CC[C@@H]5OCC(=O)N[C@@H]5C4)C3)cc2)C1` [Example 151, (4aR,8aS)-6-(3-(4-(3-Methylazetidin-1-yl)phenyl)azetidine-1-carbonyl)hexahydro-2H-pyrido[4,3-b][1,4]oxazin-3(4H)-one] as the compound, how does the IC50 read?
The IC50 was 5 nM.

`CC1(C)CCN(c2ccc(C3CN(C(=O)N4CC[C@@H]5OCC(=O)N[C@@H]5C4)C3)cc2)C1` [Example 152, (4aR,8aS)-6-(3-(4-(3,3-Dimethylpyrrolidin-1-yl)phenyl)azetidine-1-carbonyl)hexahydro-2H-pyrido[4,3-b][1,4]oxazin-3(4H)-one] was tested. Which IC50 did it give?
Its IC50 is 0.4 nM.

With `O=C1CO[C@H]2CCN(C(=O)N3CC(c4ccc(N5CC(OC(F)(F)F)C5)cc4)C3)C[C@H]2N1` [Example 153, (4aR,8aS)-6-(3-(4-(3-(Trifluoromethoxy)azetidin-1-yl)phenyl)azetidine-1-carbonyl)hexahydro-2H-pyrido[4,3-b][1,4]oxazin-3(4H)-one] as the compound, how does the IC50 read?
Its IC50 is 2 nM.

Which IC50 does the source give for `O=C1CO[C@H]2CCN(C(=O)N3CC(c4ccc(-c5ccc(Cl)cc5Cl)nc4)C3)C[C@H]2N1` [Example 154, (4aR,8aS)-6-(3-(6-(2,4-Dichlorophenyl)pyridin-3-yl)azetidine-1-carbonyl)hexahydro-2H-pyrido[4,3-b][1,4]oxazin-3(4H)-one] here?
Its IC50 is 1 nM.

For `CS(=O)(=O)c1ccc(-c2ccc(C3CN(C(=O)N4CC[C@@H]5OCC(=O)N[C@@H]5C4)C3)cc2)c(Cl)c1` [Example 155], which IC50 is on record?
The IC50 was 0.8 nM.

Which IC50 does the source give for `O=C1CO[C@H]2CCN(C(=O)N3CC(c4ccc(N5CC(F)(F)C5)cc4)C3)C[C@H]2N1` [Example 156, (4aR,8aS)-6-(3-(4-(3,3-Difluoroazetidin-1-yl)phenyl)azetidine-1-carbonyl)hexahydro-2H-pyrido[4,3-b][1,4]oxazin-3(4H)-one] here?
Its IC50 is 24 nM.

Which IC50 does the source give for `O=C1CO[C@H]2CCN(C(=O)N3CCC(c4ccc(Br)cc4)CC3)C[C@H]2N1` [Example 157, (4aR,8aS)-6-(4-(4-Bromophenyl)piperidine-1-carbonyl)hexahydro-2H-pyrido[4,3-b][1,4]oxazin-3(4H)-one] here?
The IC50 was 289 nM.

Which IC50 does the source give for `O=C1CO[C@H]2CCN(C(=O)N3CC(c4ccc(OCC(F)(F)F)cc4)C3)C[C@H]2N1` [Example 158, (4aR,8aS)-6-[3-[4-(2,2,2-Trifluoroethoxy)phenyl]azetidine-1-carbonyl]-4,4a,5,7,8,8a-hexahydropyrido[4,3-b][1,4]oxazin-3-one] here?
The IC50 was 7 nM.

`N#Cc1cc(Cl)ccc1-c1ccc(C2CN(C(=O)N3CC[C@@H]4OCC(=O)N[C@@H]4C3)C2)cc1` [Example 159, 2-[4-[1-[(4aR,8aS)-3-Oxo-4,4a,5,7,8,8a-hexahydropyrido[4,3-b][1,4]oxazine-6-carbonyl]azetidin-3-yl]phenyl]-5-chloro-benzonitrile] was tested. Which IC50 did it give?
Its IC50 is 0.1 nM.

Which IC50 does the source give for `O=C1CO[C@H]2CCN(C(=O)N3CC(c4ccc(N5CCCC5C(F)(F)F)cc4)C3)C[C@H]2N1` (stereo partly drawn) [Example 162, (4aR,8aS)-6-(3-(4-(2-(Trifluoromethyl)pyrrolidin-1-yl)phenyl)azetidine-1-carbonyl)hexahydro-2H-pyrido[4,3-b][1,4]oxazin-3(4H)-one] here?
Its IC50 is 0.3 nM.

For `O=C1CO[C@H]2CCN(C(=O)N3CC(c4ccc(N5CCC(C(F)(F)F)C5)cc4)C3)C[C@H]2N1` (stereo partly drawn) [Example 163, (4aR,8aS)-6-(3-(4-(3-(Trifluoromethyl)pyrrolidin-1-yl)phenyl)azetidine-1-carbonyl)hexahydro-2H-pyrido[4,3-b][1,4]oxazin-3(4H)-one], which IC50 is on record?
The IC50 was 0.7 nM.
